Assay results reported in the supplement of paper PMC10307832.

Key:
Test in all cases: relative viability (nuclei count vs DMSO), 5 days (fraction); higher = more cells survive
RAF265 + Phenformin = compound: Cn1c(Nc2ccc(C(F)(F)F)cc2)nc2cc(Oc3ccnc(-c4ncc(C(F)(F)F)[nH]4)c3)ccc21 [RAF265] + N=C(N)NC(=N)NCCc1ccccc1 [Phenformin] (partner 250 µM)
How it was run: (§1)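 Relative viability was taken as the ratio of nuclei in treated wells to nuclei in vehicle wells. Lung cancer cell lines in 1536-well plates received compounds by pin tool one day after seeding, either one drug alone or a fixed anchor-drug dose plus five library-drug doses (not always all listed) in √10 steps. Nuclei were counted on 4× images after 5 days of treatment, and values are medians of duplicate plates.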

IPA-3 + Palbociclib = compound: C1=CC=C2C(=C1)C=CC(=C2SSC3=C(C=CC4=CC=CC=C43)O)O [IPA-3] + CC(=O)c1c(C)c2cnc(Nc3ccc(N4CCNCC4)cn3)nc2n(C2CCCC2)c1=O [Palbociclib] (partner 0.5 µM)
How it was run: as §1

Doramapimod + Olaparib = compound: Cc1ccc(-n2nc(C(C)(C)C)cc2NC(=O)Nc2ccc(OCCN3CCOCC3)c3ccccc23)cc1 [Doramapimod] + O=C(c1cc(Cc2n[nH]c(=O)c3ccccc23)ccc1F)N1CCN(C(=O)C2CC2)CC1 [Olaparib] (partner 8 µM)
How it was run: as §1

Doramapimod + Phenformin = compound: Cc1ccc(-n2nc(C(C)(C)C)cc2NC(=O)Nc2ccc(OCCN3CCOCC3)c3ccccc23)cc1 [Doramapimod] + N=C(N)NC(=N)NCCc1ccccc1 [Phenformin] (partner 250 µM)
How it was run: as §1

Cell Line	relative viability (RAF265 + Phenformin; first compound 0.01 µM)	relative viability (RAF265 + Phenformin; first compound 0.03162 µM)	relative viability (RAF265 + Phenformin; first compound 0.1 µM)	relative viability (RAF265 + Phenformin; first compound 0.3162 µM)	relative viability (RAF265 + Phenformin; first compound 1 µM)	relative viability (IPA-3 + Palbociclib; first compound 0.2 µM)	relative viability (IPA-3 + Palbociclib; first compound 0.6325 µM)	relative viability (IPA-3 + Palbociclib; first compound 2 µM)	relative viability (IPA-3 + Palbociclib; first compound 6.325 µM)	relative viability (IPA-3 + Palbociclib; first compound 20 µM)	relative viability (Doramapimod + Olaparib; first compound 0.02 µM)	relative viability (Doramapimod + Olaparib; first compound 0.06325 µM)	relative viability (Doramapimod + Olaparib; first compound 0.2 µM)	relative viability (Doramapimod + Olaparib; first compound 0.6325 µM)	relative viability (Doramapimod + Olaparib; first compound 2 µM)	relative viability (Doramapimod + Phenformin; first compound 0.02 µM)	relative viability (Doramapimod + Phenformin; first compound 0.06325 µM)	relative viability (Doramapimod + Phenformin; first compound 0.2 µM)	relative viability (Doramapimod + Phenformin; first compound 0.6325 µM)	relative viability (Doramapimod + Phenformin; first compound 2 µM)
EKVX	0.266	0.249	0.248	0.186	0.19	0.352	0.418	0.34	0.456	0.409	0.955	0.775	0.888	0.844	0.742	0.256	0.24	0.253	0.179	0.204
NCI-H460	0.529	0.463	0.483	0.399	0.394	0.203	0.108	0.145	0.19	0.057	0.453	0.431	0.422	0.459	0.419	0.51	0.54	0.581	0.595	0.454
LCLC-97TM1	0.42	0.384	0.21	0.252	0.148	0.23	0.2	0.226	0.185	0.177	0.454	0.477	0.539	0.426	0.254	0.456	0.424	0.488	0.38	0.269
COR-L23	0.507	0.395	0.344	0.315	0.258	0.283	0.301	0.316	0.266	0.118	0.368	0.351	0.368	0.315	0.379	0.436	0.467	0.398	0.422	0.391
NCI-H1355	0.432	0.434	0.41	0.309	0.332	0.445	0.395	0.386	0.405	0.424	0.76	0.732	0.708	0.721	0.7	0.423	0.467	0.454	0.421	0.415
NCI-H1666	0.597	0.343	0.567	0.579	0.559	0.643	0.672	0.624	0.616	0.658	0.844	0.743	0.751	0.775	0.748	0.601	0.555	0.61	0.581	0.554
EPLC-272H	0.267	0.323	0.261	0.249	0.206	0.31	0.38	0.316	0.304	0.327	0.732	0.766	0.726	1.03	0.717	0.294	0.243	0.356	0.291	0.274
ChaGo-K-1	0.519	0.511	0.392	0.405	0.382	0.952	0.824	0.923	0.955	1.02	0.472	0.423	0.438	0.379	0.398	0.476	0.507	0.459	0.534	0.428
NCI-H1651	0.369	0.334	0.316	0.294	0.295	0.534	0.511	0.541	0.528	0.602	0.203	0.19	0.17	0.204	0.194	0.323	0.317	0.348	0.415	0.45
HCC-44	0.183	0.241	0.209	0.199	0.19	0.966	1.02	0.979	0.948	0.934	0.995	0.976	0.993	0.979	0.977	0.267	0.247	0.22		0.241
SW 1573	0.373	0.336	0.353	0.296	0.265	0.492	0.332	0.412	0.363	0.0729	0.446	0.425	0.456	0.546	0.433	0.355	0.304	0.306	0.301	0.236
PC-3 [JPC-3]	0.457	0.502	0.469		0.465	0.537	0.541	0.538	0.531	0.477	1.3	1.16	1.22	1.33	1.14	0.506	0.475	0.474	0.502	0.453
LOU-NH91	0.86	0.639	0.721	0.64	0.52	0.535	0.525	0.552	0.511	0.572	0.987	0.929	0.902	1	0.737	0.76	0.671	0.735	0.774	0.417
PC-14	0.578	0.599	0.864		0.539	0.648	0.324	0.512	0.446	0.352	0.351	0.36	0.342	0.281	0.269	0.662	0.721	0.809	0.762	0.475
NCI-H2087	0.512	0.413	0.377	0.331	0.287	0.263	0.207	0.22	0.219	0.283	0.562	0.577	0.525	0.675	0.481	0.403	0.459	0.411	0.415	0.412
SW 900	0.73	0.491	0.665	0.283	0.293	0.536	0.518	0.545	0.49	0.587	0.842	0.728	0.895	0.939	0.846	0.612	0.665	0.676	0.76	0.635
